pEC50, pIC50: −log10 of the molar value.
Experiments:
[1] = biological target: T1, THRα-LBD (Homo sapiens, UniProt P10827); experiment: THR coactivator recruitment assay (LanthaScreen TR-FRET), THRα; format: biochemical; details: for THRα Bmax % (vs T3): maximum activity relative to the maximum activity of 500 nM T3
T1 construct: purchased ThermoFisher
Procedure: The coactivator recruitment assay was performed using LanthaScreen™ TR-FRET TR coactivator assay kit (ThermoFisher). […] The diluted test compounds were mixed with the same volume of other reagents (10 μl:10 μl). […] In addition, the selectivity for each compound was normalized for the selectivity of T3 run in the same assay.

[2] = test system: C57BL/6cnc mice; experiment: Cholesterol-lowering efficacy in trans-fat AMLN diet-induced hypercholesterolemia mouse model; format: in vivo; details: for LDL-c / liver TC / plasma TC: daily oral gavage 2 weeks, 0.3-3 mg/kg (Example 7) or 1 and 3 mg/kg; for efficacy in cholesterol reduction compared with MGL-3196: same dose; for ALT / AST: AMLN diet mice, 0.3, 1, 3 mg/kg oral, 2 weeks, MGL-3196 effect at doses greater than 1 mg/kg
Procedure: C57BL/6cnc mice were fed with AMVLN diet containing 40 Kcal % Fat, 20 Kcal % Fructose and 2% Cholesterol (Research Diets, D09100301) for 5 weeks to induce hypercholesterolemia. The cholesterol lowering efficacy of compounds disclosed herein were tested in two separate studies. […] Thyroid hormone T3 (0.1 mg/kg, intraperitoneal injection) was evaluated as a positive control in both studies. The treatment lasted two weeks with daily oral gavage. Blood samples were taken before the dosing on the first day and again at the end of study for detection of plasma cholesterol (TC), triglycerides (TG) and LDL-c. […] At the end of study, the liver tissues were taken for measuring the hepatic TC and TG levels. The compound concentration was quantified in blood, liver and heart.

[3] = biological target: T2, CYP 1A2 (Homo sapiens, UniProt P05177); experiment: CYP inhibition in human liver microsome, 1A2; format: in vitro ADME; details: human liver microsomes, substrate phenacetin, top 50 μM; read-out: CYP450 inhibition IC50 1A2
T2 construct: from tissue; host or cells: human liver microsomes
T2 sequence (P05177 1-516): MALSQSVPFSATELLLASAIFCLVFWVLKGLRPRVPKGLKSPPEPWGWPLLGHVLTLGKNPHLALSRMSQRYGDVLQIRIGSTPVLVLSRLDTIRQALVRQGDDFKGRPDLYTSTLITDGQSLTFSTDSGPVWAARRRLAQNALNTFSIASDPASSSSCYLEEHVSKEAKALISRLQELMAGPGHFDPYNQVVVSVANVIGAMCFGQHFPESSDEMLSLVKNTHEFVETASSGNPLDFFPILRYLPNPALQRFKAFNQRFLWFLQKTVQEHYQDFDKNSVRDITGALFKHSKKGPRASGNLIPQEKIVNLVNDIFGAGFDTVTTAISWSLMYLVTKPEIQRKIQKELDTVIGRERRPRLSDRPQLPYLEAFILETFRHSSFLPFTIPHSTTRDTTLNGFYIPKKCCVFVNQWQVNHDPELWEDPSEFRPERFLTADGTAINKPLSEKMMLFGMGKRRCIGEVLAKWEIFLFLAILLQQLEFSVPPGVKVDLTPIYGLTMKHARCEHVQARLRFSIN
Procedure: (§1) Test compounds were evaluated for CYP inhibition using human liver microsomes (HLM). Test compounds were 1:3 serially diluted starting at 50 μM to generate 7 different concentrations. After incubation of diluted test compounds with HLM, a substrate cocktail composed of phenacetin (10 uM), amodiaquine (2 uM), diclofenac (5 uM), s-mephenytoin (30 uM), dextromethorphan (5 uM), and midazolam (2 uM) was added to check the remaining CYP activity for CYP 1A2, 2C8, 2C9, 2C19, 2D6 and 3A4. The CYP activity was measured by detecting the peak area of individual metabolites of know CYP substrates using LC/MS/MS. A percentage of inhibition of CYP was calculated at each final concentration of test compound, through which an IC50 was fitted to represent the inhibition potential.

[4] = biological target: T3, CYP 2D6 (Homo sapiens, UniProt P10635); experiment: CYP inhibition in human liver microsome, 2D6; format: in vitro ADME; details: human liver microsomes, substrate dextromethorphan, top 50 μM; read-out: CYP450 inhibition IC50 2D6
T3 construct: from tissue; host or cells: human liver microsomes
Procedure: as §1

[5] = biological target: T4, CYP 2C8 (Homo sapiens, UniProt P10632); experiment: CYP inhibition in human liver microsome, 2C8; format: in vitro ADME; details: human liver microsomes, substrate amodiaquine, top 50 μM; read-out: CYP450 inhibition IC50 2C8
T4 construct: from tissue; host or cells: human liver microsomes
T4 sequence (P10632 1-490): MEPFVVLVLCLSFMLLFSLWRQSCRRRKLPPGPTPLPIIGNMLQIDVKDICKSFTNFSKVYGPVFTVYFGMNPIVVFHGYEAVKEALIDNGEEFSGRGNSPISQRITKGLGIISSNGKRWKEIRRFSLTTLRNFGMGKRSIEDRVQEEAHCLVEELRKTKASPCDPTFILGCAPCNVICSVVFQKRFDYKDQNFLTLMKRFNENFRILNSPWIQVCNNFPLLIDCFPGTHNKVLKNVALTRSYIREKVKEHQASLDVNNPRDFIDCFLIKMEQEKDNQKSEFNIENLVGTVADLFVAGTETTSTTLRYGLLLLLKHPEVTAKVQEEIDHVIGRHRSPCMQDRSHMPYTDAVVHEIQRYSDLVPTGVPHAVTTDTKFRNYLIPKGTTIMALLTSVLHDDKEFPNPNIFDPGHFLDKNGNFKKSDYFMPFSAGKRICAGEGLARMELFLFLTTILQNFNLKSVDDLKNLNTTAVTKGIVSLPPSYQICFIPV
Procedure: as §1

[6] = biological target: T5, CYP 2C19 (Homo sapiens, UniProt P33261); experiment: CYP inhibition in human liver microsome, 2C19; format: in vitro ADME; details: human liver microsomes, substrate s-mephenytoin, top 50 μM; read-out: CYP450 inhibition IC50 2C19
T5 construct: from tissue; host or cells: human liver microsomes
Procedure: as §1

[7] = test system: Thyroidectomized rats; experiment: Heart safety evaluation in hypothyroid rat: heart rate; format: in vivo; details: 100 mg/kg oral gavage, monitored for 1 hour, 10% change is normal noise
Procedure: SD Rats underwent thyroidectomy and recovered for 10 days. T3 and T4 were tested to confirm the complete thyroidectomy. […] Note that the dose for these compounds was […] higher than their therapeutic dose (1 mg/kg by oral gavage) in mouse models. For comparison, thyroid hormone T3 was also tested at 0.1 mg/kg with intraperitoneal injection. […] After 6 hours, the heart tissues were collected to quantitate the expression of α-MHC, a thyroid hormone responsive and THRα-target gene in heart.

[8] = test system: C57BL/6cnc mice; experiment: Antifibrotic and fat reduction efficacy in NASH mouse model; format: in vivo; details: for overall activity in the second NASH study, compounds compared / LDL-c level / liver TC / liver TG / plasma TC level / plasma LDL-c level / ALT level / liver weight: 1 mg/kg daily oral; for expression of DIO1 in liver: end of study; for ALT level / liver weight: to normal range
Procedure: C57BL/6cnc mice were fed with high-fat diet containing 60 kacl % fat and 0.10% methionine (no added choline) (Research Diets, A06071302) for 12 weeks to induce NASH model. After 12-week diet induction, the mice had increased plasma levels of TC, LDL-c, ALT, and fibrosis markers. Two studies were performed on this diet-induced NASH model with different compounds and treatment durations. […] Serum biochemistry was measured before dosing during study. At the end of the experiment, liver was collected to measure liver TC and TG. Livers were punched in 2 mm diameter and fixed, sectioned and stained with Sirius Red, and the fibrosis and steatosis were scored.

[9] = biological target: T6, CYP 3A4 (Homo sapiens, UniProt P08684); experiment: CYP inhibition in human liver microsome, 3A4; format: in vitro ADME; details: human liver microsomes, substrate midazolam, top 50 μM; read-out: CYP450 inhibition IC50 3A4
T6 construct: from tissue; host or cells: human liver microsomes
Procedure: as §1

[10] = first NASH study, 12 weeks, as early as 6 days after treatment

T5 sequence (P33261 whole entry): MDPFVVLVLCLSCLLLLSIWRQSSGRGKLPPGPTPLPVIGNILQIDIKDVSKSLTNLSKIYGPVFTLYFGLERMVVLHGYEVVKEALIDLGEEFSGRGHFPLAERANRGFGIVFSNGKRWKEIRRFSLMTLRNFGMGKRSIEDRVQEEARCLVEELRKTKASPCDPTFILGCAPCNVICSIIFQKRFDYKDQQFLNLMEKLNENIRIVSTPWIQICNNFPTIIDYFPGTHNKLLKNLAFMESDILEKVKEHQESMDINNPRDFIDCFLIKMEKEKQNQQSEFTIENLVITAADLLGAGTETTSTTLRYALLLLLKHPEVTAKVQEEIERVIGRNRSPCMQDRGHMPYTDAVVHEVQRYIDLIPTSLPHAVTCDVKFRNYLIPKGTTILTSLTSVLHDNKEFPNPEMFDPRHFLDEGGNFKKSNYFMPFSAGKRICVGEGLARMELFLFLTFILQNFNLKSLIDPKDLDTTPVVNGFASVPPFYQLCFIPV
T1 sequence (P10827 163-410 isoform P10827-2 limits assumed, other chains not shown): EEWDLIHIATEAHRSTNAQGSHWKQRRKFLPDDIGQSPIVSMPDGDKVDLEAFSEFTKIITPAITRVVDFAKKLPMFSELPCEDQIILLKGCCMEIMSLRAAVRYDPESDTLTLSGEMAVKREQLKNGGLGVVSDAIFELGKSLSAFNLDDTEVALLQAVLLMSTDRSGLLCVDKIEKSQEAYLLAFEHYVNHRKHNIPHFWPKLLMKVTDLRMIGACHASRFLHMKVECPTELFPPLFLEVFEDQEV
T3 sequence (P10635 whole entry): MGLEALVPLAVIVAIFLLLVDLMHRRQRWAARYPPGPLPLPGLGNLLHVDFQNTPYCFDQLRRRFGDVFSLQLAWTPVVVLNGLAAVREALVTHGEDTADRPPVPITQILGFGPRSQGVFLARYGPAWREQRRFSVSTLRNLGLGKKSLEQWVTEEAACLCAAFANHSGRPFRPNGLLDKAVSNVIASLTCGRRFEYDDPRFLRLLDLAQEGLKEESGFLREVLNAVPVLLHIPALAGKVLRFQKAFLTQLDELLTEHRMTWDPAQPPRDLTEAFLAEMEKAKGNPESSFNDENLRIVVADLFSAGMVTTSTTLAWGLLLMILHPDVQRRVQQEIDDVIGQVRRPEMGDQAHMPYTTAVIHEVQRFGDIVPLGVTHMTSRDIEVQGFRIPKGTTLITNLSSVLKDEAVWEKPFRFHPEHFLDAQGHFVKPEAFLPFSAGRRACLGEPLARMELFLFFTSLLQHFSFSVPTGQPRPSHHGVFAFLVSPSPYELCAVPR
T6 sequence (P08684 whole entry): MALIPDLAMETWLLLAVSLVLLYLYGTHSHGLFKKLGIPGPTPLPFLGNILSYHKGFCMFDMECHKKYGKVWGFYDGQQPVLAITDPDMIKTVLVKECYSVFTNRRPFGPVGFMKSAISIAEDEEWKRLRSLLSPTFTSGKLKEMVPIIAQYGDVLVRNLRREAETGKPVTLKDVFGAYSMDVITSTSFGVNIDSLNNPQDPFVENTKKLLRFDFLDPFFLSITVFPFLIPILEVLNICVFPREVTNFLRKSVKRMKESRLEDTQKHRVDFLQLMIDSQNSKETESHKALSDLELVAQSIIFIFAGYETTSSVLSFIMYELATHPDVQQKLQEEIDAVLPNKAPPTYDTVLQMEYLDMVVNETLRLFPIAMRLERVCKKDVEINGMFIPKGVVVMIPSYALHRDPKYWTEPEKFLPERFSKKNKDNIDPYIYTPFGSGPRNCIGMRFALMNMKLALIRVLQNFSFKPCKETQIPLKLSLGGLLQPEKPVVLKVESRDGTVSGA

Row | Structure (SMILES) | THRα Bmax % (vs T3) [1] [%] | LDL-c ([2]; AMLN diet mice) | liver TC ([2]; AMLN diet mice) | plasma TC ([2]; AMLN diet mice) | efficacy in cholesterol reduction compared with MGL-3196 ([2]; AMLN diet mice) | pIC50 [3] | pIC50 [4] | pIC50 [5] | pIC50 [6] | heart rate change [7] | overall activity in the second NASH study, compounds compared ([8]; 6 weeks) | LDL-c level ([8]; second NASH study, 6 weeks) | liver TC ([8]; second NASH study, 6 weeks) | liver TG ([8]; second NASH study, 6 weeks) | plasma TC level ([8]; second NASH study, 6 weeks) | expression of DIO1 in liver ([8]; second NASH study) | pIC50 [9] | ALT [2] | AST [2] | liver TC ([8]; first NASH study, 12 weeks) | further results
1 | C[C@@H]1CCc2c(Oc3c(Cl)cc(-n4nc(C#N)c(=O)[nH]c4=O)cc3Cl)n[nH]c(=O)c21 (single isomer, unassigned) [Example 41] | 36 | significantly reduced | significantly reduced | significantly reduced | more effective | < 4.30 | < 4.30 | 5.51 | < 4.30 | no heart rate change | equivalent | reduced | significantly decreased | significantly decreased | reduced | significantly increased | < 4.30 |  |  |  | pEC50 ([1]; EC50 class from TR-FRET ratio 520:495 dose response, read-out: THRα binding): 6.00 to 7.00; rank among the compounds in reducing the liver and plasma cholesterol ([2]; AMLN diet mice, second study, 1 and 3 mg/kg): most effective
2 | [2H]C([2H])([2H])C(c1cc(Oc2c(Cl)cc(-n3nc(C#N)c(=O)[nH]c3=O)cc2Cl)n[nH]c1=O)C([2H])([2H])[2H] [Example 7, 2-(3,5-dichloro-4-((6-oxo-5-(propan-2-yl-1,1,1,3,3,3-d6)-1,6-dihydropyridazin-3-yl)oxy)phenyl)-3,5-dioxo-2,3,4,5-tetrahydro-1,2,4-triazine-6-carbonitrile] | 41 | significantly reduced | significantly reduced | significantly reduced | comparable efficacy | < 4.30 | < 4.30 | 5.12 | < 4.30 | only mildly affected | equivalent | reduced | significantly decreased | significantly decreased | reduced | significantly increased | < 4.30 | no effect | no effect | significantly decreased | liver function safety compared with MGL-3196 ([2]; AMLN diet mice, from ALT and AST): safer; liver TG ([8]; first NASH study, 12 weeks): significantly decreased; plasma LDL-c level ([8]; first NASH study, 12 weeks): reduced to normal range; plasma TC level [8, 10]: reduced; ALT level ([8]; first NASH study, 12 weeks): reduced; liver weight ([8]; first NASH study, 12 weeks): reduced; fibrosis score ([8]; first NASH study, Sirius Red histopathology, versus control group and MGL-3196-treated group): much lower
3 | [2H]c1c(Cl)c(Oc2cc(C(C([2H])([2H])[2H])C([2H])([2H])[2H])c(=O)[nH]n2)c(Cl)c([2H])c1-n1nc(C#N)c(=O)[nH]c1=O [Example 30, 2-(3,5-dichloro-4-((6-oxo-5-(propan-2-yl-1,1,1,3,3,3-d6)-1,6-dihydropyridazin-3-yl)oxy)phenyl-2,6-d2)-3,5-dioxo-2,3,4,5-tetrahydro-1,2,4-triazine-6-carbonitrile] | 34 | significantly reduced | significantly reduced | significantly reduced |  | < 4.30 | < 4.30 | 5.37 | < 4.30 | no heart rate change | less potent | reduced |  |  | reduced |  | < 4.30 |  |  |  | 
4 | CC(C)c1cc(Oc2c(Cl)cc(-n3nc(C#N)c(=O)[nH]c3=O)cc2Cl)n[nH]c1=O [MGL-3196, reference compound] | 49 |  |  |  |  | < 4.30 | < 4.30 | 5.37 | < 4.30 | only mildly affected |  |  |  |  |  |  | < 4.30 | increased | increased | significantly decreased | liver TG ([8]; first NASH study, 12 weeks): significantly decreased; plasma LDL-c level ([8]; first NASH study, 12 weeks): reduced to normal range; plasma TC level [8, 10]: reduced; ALT level ([8]; first NASH study, 12 weeks): reduced; liver weight ([8]; first NASH study, 12 weeks): reduced

— patent US12358899B2, “Thyroid hormone receptor agonists and uses thereof” (XIZANG HAISCO PHARMACEUTICAL CO., LTD., priority 2018, dated 2025)
